Data published in US11566007B2, “Ras inhibitors” (Revolution Medicines, Inc., priority 2019, dated 2023).
pIC50: −log10 of the molar value. Values belong to the compound of their own block, whether it stands above or below them.

Key:
[1] = tested on: NCI-H358 (K-Ras G12C); experiment: CellTiter-Glo cell viability assay, NCI-H358; type: cell-based, human; conditions: Homo sapiens, NCI-H358, 120 h, NCI-H358, 5-day treatment; class symbols; read-out: Additional H358 Cell Viability assay data (K-Ras G12C, IC50)
Procedure, shortened: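 Four-parameter logistic fits were applied to luminescence data normalized against DMSO-treated wells. Readings were taken on day 5 following direct compound addition, after roughly 30 minutes at room temperature.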

[2] = biological target: K-Ras G12C (Homo sapiens (Human), UniProt P01116+P62937, G12C); experiment: Ras-Raf (BRAF RBD) disruption / FRET / MOA assay, KRAS G12C; type: biochemical; conditions: KRAS G12C; Ras-Raf disruption/FRET/MOA assay; read-out: IC50* KRAS G12C FRET data
Procedure, shortened: (§1)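 Ternary complex formation (Ras–compound–cyclophilin A) displacing BRAF RBD, monitored by TR-FRET. Three hours at 25° C with compound (top 30 μM final), then 1.5 h with the labelled antibodies. Lower ratio than DMSO indicates disruption; IC50 reported.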

[3] = biological target: K-Ras G13C (Homo sapiens (Human), UniProt P01116+P62937, G13C); experiment: Ras-Raf (BRAF RBD) disruption / FRET / MOA assay, KRAS G13C; type: biochemical; conditions: KRAS G13C; Ras-Raf disruption/FRET/MOA assay; read-out: IC50* KRAS G13C FRET data
Procedure, shortened: as §1

[4] = biological target: KRAS G12S (Homo sapiens (Human), UniProt P01116+P62937, G12S); experiment: Ras-Raf (BRAF RBD) disruption / FRET / MOA assay, KRAS G12S; type: biochemical; conditions: Ras-Raf disruption/FRET/MOA assay; class symbols; read-out: KRAS G12S FRET data IC50
Procedure, shortened: as §1

[5] = biological target: KRAS G12D (Homo sapiens (Human), UniProt P01116+P62937, G12D); experiment: Ras-Raf (BRAF RBD) disruption / FRET / MOA assay, KRAS G12D; type: biochemical; conditions: Ras-Raf disruption/FRET/MOA assay; class symbols; read-out: KRAS G12D FRET data IC50
Procedure, shortened: as §1

[6] = biological target: KRAS G12V (Homo sapiens (Human), UniProt P01116+P62937, G12V); experiment: Ras-Raf (BRAF RBD) disruption / FRET / MOA assay, KRAS G12V; type: biochemical; conditions: read-out: IC50* KRAS G12V FRET data
Procedure, shortened: as §1

[7] = biological target: KRAS WT (Homo sapiens (Human), UniProt P01116+P62937); experiment: Ras-Raf (BRAF RBD) disruption / FRET / MOA assay, KRAS WT; type: biochemical; conditions: read-out: IC50* KRAS WT FRET data
Procedure, shortened: as §1

[8] = biological target: KRAS G13D (Homo sapiens (Human), UniProt P01116+P62937, G13D); experiment: Ras-Raf (BRAF RBD) disruption / FRET / MOA assay, KRAS G13D; type: biochemical; conditions: read-out: IC50* KRAS G13D FRET data
Procedure, shortened: as §1

[9] = biological target: KRAS Q61H (Homo sapiens (Human), UniProt P01116+P62937, Q61H); experiment: Ras-Raf (BRAF RBD) disruption / FRET / MOA assay, KRAS Q61H; type: biochemical; conditions: Ras-Raf disruption/FRET/MOA assay; class symbols; read-out: KRAS Q61H FRET data IC50
Procedure, shortened: (§2)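 Compounds were tested as a 10-point 3-fold dilution series from 30 μM final for their ability to drive ternary complex formation between nucleotide-loaded Ras and cyclophilin A, displacing the BRAF RBD. After 3 h at 25° C., anti-His Eu-W1024 (10 nM) and anti-GST allophycocyanin (50 nM) were added for 1.5 h. A TR-FRET ratio decrease versus DMSO gave IC50.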

[10] = biological target: NRAS G12C (Homo sapiens (Human), UniProt P01111+P62937, G12C); experiment: Ras-Raf (BRAF RBD) disruption / FRET / MOA assay, NRAS G12C; type: biochemical; conditions: read-out: IC50* NRAS G12C FRET data
Procedure, shortened: as §1

[11] = biological target: NRAS Q61R (Homo sapiens (Human), UniProt P01111+P62937, Q61R); experiment: Ras-Raf (BRAF RBD) disruption / FRET / MOA assay, NRAS Q61R; type: biochemical; conditions: NRAS Q61R; Ras-Raf disruption/FRET/MOA assay; read-out: IC50* NRAS Q61R FRET data
Procedure, shortened: as §2

[12] = biological target: NRAS WT (Homo sapiens (Human), UniProt P01111+P62937); experiment: Ras-Raf (BRAF RBD) disruption / FRET / MOA assay, NRAS WT; type: biochemical; conditions: read-out: IC50* NRAS WT FRET data
Procedure, shortened: as §2

Chain of KRAS G12S (P01116-2 other isoform, or with tags, fused parts or gaps G12S): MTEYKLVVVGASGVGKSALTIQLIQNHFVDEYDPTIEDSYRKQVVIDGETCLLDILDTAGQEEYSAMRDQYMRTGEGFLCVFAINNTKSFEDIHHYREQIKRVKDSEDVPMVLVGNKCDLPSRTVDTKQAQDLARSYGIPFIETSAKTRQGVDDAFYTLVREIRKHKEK
Chain of KRAS G12S (P62937 whole entry): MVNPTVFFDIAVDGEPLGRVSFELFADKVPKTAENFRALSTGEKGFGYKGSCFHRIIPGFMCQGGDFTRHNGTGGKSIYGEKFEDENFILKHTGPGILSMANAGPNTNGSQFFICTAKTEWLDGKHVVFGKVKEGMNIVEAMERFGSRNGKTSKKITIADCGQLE
Chain of KRAS WT (P01116-2 other isoform, or with tags, fused parts or gaps): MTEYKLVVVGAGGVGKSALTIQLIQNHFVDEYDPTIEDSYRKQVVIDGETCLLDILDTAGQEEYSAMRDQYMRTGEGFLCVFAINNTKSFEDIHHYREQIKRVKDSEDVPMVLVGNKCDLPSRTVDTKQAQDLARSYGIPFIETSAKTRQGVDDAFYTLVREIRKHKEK
Chain of KRAS WT (P62937 whole entry): as the sequence (P62937 whole entry) above
Chain of KRAS G12V (P01116-2 other isoform, or with tags, fused parts or gaps G12V): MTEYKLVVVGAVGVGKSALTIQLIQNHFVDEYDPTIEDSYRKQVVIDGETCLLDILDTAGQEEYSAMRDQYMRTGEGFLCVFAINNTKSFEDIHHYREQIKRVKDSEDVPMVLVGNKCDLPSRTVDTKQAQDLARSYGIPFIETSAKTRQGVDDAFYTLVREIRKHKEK
Chain of KRAS G12V (P62937 whole entry): as the sequence (P62937 whole entry) above
Chain of NRAS WT (P01111 whole entry): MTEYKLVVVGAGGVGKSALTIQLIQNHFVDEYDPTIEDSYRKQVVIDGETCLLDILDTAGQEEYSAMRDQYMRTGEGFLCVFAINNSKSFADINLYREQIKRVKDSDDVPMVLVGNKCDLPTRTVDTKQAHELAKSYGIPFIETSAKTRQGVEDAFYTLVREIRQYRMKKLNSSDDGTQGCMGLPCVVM
Chain of NRAS WT (P62937 whole entry): as the sequence (P62937 whole entry) above
Chain of KRAS G12D (P01116-2 other isoform, or with tags, fused parts or gaps G12D): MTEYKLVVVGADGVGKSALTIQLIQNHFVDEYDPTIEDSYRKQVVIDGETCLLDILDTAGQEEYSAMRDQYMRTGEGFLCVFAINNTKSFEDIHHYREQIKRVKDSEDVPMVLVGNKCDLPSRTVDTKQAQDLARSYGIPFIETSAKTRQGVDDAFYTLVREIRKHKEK
Chain of KRAS G12D (P62937 whole entry): as the sequence (P62937 whole entry) above
Chain of NRAS G12C (P01111 whole entry G12C): as the sequence (P01111 whole entry) above, with G12C counted along it
Chain of NRAS G12C (P62937 whole entry): as the sequence (P62937 whole entry) above
Chain of K-Ras G12C (P01116-2 other isoform, or with tags, fused parts or gaps G12C): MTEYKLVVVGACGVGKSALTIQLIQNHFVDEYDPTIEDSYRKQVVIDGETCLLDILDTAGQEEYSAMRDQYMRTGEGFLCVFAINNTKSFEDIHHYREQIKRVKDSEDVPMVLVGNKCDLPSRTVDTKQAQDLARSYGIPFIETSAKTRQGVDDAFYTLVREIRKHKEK
Chain of K-Ras G12C (P62937 whole entry): as the sequence (P62937 whole entry) above
Chain of KRAS Q61H (P01116-2 other isoform, or with tags, fused parts or gaps Q61H): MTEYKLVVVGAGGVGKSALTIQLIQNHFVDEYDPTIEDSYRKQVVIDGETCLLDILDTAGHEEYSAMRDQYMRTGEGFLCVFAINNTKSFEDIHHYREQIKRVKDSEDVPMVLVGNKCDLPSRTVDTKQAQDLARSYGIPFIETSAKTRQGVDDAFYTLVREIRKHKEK
Chain of KRAS Q61H (P62937 whole entry): as the sequence (P62937 whole entry) above
Chain of K-Ras G13C (P01116-2 other isoform, or with tags, fused parts or gaps G13C): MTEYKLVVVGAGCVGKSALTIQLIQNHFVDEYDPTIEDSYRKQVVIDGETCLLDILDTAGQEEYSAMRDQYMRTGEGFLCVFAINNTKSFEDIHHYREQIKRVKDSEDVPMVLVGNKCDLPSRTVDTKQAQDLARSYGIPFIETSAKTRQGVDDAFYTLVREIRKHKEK
Chain of K-Ras G13C (P62937 whole entry): as the sequence (P62937 whole entry) above
Chain of NRAS Q61R (P01111 whole entry Q61R): as the sequence (P01111 whole entry) above, with Q61R counted along it
Chain of NRAS Q61R (P62937 whole entry): as the sequence (P62937 whole entry) above
Chain of KRAS G13D (P01116-2 other isoform, or with tags, fused parts or gaps G13D): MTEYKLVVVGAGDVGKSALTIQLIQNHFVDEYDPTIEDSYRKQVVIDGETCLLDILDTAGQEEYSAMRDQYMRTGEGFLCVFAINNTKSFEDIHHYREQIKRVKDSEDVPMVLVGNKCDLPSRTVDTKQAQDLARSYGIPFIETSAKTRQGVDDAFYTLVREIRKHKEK
Chain of KRAS G13D (P62937 whole entry): as the sequence (P62937 whole entry) above

Compound: C=CC(=O)N1CCO[C@H]2CN(C(=O)N(C)[C@H](C(=O)N[C@H]3Cc4coc(n4)-c4ccc5c(c4)c(c(-c4cccnc4[C@H](C)OC)n5CC(F)(F)F)CC(C)(C)COC(=O)[C@@H]4CCCN(N4)C3=O)C(C)C)C[C@H]21 (atropisomer, axis not shown) [Example A574]
- pIC50 [1]: 7.00 to 8.00
- pIC50 [2]: 6.00 to 7.00
- pIC50 [3]: 7.00 to 8.00
- pIC50 [4]: 5.00 to 6.00
- pIC50 [5]: < 5.00
- pIC50 [6]: 5.00 to 6.00
- pIC50 [7]: 5.00 to 6.00
- pIC50 [8]: 5.00 to 6.00
- pIC50 [9]: 6.00 to 7.00
- pIC50 [10]: 7.00 to 8.00
- pIC50 [11]: 5.00 to 6.00
- pIC50 [12]: 5.00 to 6.00

- pIC50 [1]: 7.00 to 8.00
- pIC50 [2]: 6.00 to 7.00
- pIC50 [3]: 6.00 to 7.00
- pIC50 [4]: 6.00 to 7.00
- pIC50 [5]: 5.00 to 6.00
- pIC50 [6]: 5.00 to 6.00
- pIC50 [7]: 6.00 to 7.00
- pIC50 [8]: 5.00 to 6.00
- pIC50 [9]: 6.00 to 7.00
- pIC50 [10]: 6.00 to 7.00
- pIC50 [11]: 6.00 to 7.00
- pIC50 [12]: 6.00 to 7.00
Compound: C=CC(=O)N1C[C@@H](N(C)C(=O)N(C)[C@H](C(=O)N[C@H]2Cc3nc(cs3)-c3ccc4c(c3)c(c(-c3cccnc3[C@H](C)OC)n4CC)CC(C)(C)COC(=O)[C@@H]3CCCN(N3)C2=O)C(C)C)[C@@H](C)C1 (atropisomer, axis not shown) [Example A583]

Compound: C=CC(=O)N1C[C@H](C)N(C(=O)N(C)[C@H](C(=O)N[C@H]2Cc3nc(cs3)-c3ccc4c(c3)c(c(-c3cccnc3[C@H](C)OC)n4CC)CC(C)(C)COC(=O)[C@@H]3CCCN(N3)C2=O)C(C)C)CC12CC2 (atropisomer, axis not shown) [Example A586]
- pIC50 [1]: 7.00 to 8.00
- pIC50 [2]: 6.00 to 7.00
- pIC50 [3]: 6.00 to 7.00
- pIC50 [4]: 6.00 to 7.00
- pIC50 [5]: 5.00 to 6.00
- pIC50 [6]: 6.00 to 7.00
- pIC50 [7]: 6.00 to 7.00
- pIC50 [8]: 5.00 to 6.00
- pIC50 [9]: 7.00 to 8.00
- pIC50 [10]: 6.00 to 7.00
- pIC50 [11]: 6.00 to 7.00
- pIC50 [12]: 6.00 to 7.00

Compound: C=CC(=O)N1C[C@@H](C)[C@H](N(C)C(=O)N(C)[C@H](C(=O)N[C@H]2Cc3nc(cs3)-c3ccc4c(c3)c(c(-c3cccnc3[C@H](C)OC)n4CC)CC(C)(C)COC(=O)[C@@H]3CCCN(N3)C2=O)C(C)C)C1 (atropisomer, axis not shown) [Example A588]
- pIC50 [1]: 7.00 to 8.00
- pIC50 [2]: 6.00 to 7.00
- pIC50 [3]: 5.00 to 6.00
- pIC50 [4]: 5.00 to 6.00
- pIC50 [5]: 5.00 to 6.00
- pIC50 [6]: 5.00 to 6.00
- pIC50 [7]: 5.00 to 6.00
- pIC50 [8]: 5.00 to 6.00
- pIC50 [9]: 6.00 to 7.00
- pIC50 [10]: 6.00 to 7.00
- pIC50 [11]: 5.00 to 6.00
- pIC50 [12]: 5.00 to 6.00

Compound: C=CC(=O)Nc1cnc(OC[C@H](C(=O)N[C@H]2Cc3cccc(c3)-c3ccc4c(c3)c(c(-c3cccnc3[C@H](C)OC)n4CC)CC(C)(C)COC(=O)[C@@H]3CCCN(N3)C2=O)C(C)C)n1C (atropisomer, axis not shown) [Example A600]
- pIC50 [1]: > 8.00
- pIC50 [2]: > 8.00
- pIC50 [3]: 7.00 to 8.00
- pIC50 [4]: 5.00 to 6.00
- pIC50 [5]: 5.00 to 6.00
- pIC50 [6]: 5.00 to 6.00
- pIC50 [7]: 6.00 to 7.00
- pIC50 [8]: 5.00 to 6.00
- pIC50 [9]: 6.00 to 7.00
- pIC50 [10]: > 8.00
- pIC50 [11]: 5.00 to 6.00
- pIC50 [12]: 6.00 to 7.00

Compound: C=CC(=O)N1CCOC2(C1)CN(C(=O)N(C)[C@H](C(=O)N[C@H]1Cc3nc(cs3)-c3ccc4c(c3)c(c(-c3cccnc3[C@H](C)OC)n4CC(F)(F)F)CC(C)(C)COC(=O)[C@@H]3CCCN(N3)C1=O)C(C)C)C2 (atropisomer, axis not shown) [Example A604]
- pIC50 [1]: > 8.00
- pIC50 [2]: 6.00 to 7.00
- pIC50 [3]: 7.00 to 8.00
- pIC50 [4]: 6.00 to 7.00
- pIC50 [5]: 5.00 to 6.00
- pIC50 [6]: 6.00 to 7.00
- pIC50 [7]: 6.00 to 7.00
- pIC50 [8]: 5.00 to 6.00
- pIC50 [9]: 6.00 to 7.00
- pIC50 [10]: 6.00 to 7.00
- pIC50 [11]: 6.00 to 7.00
- pIC50 [12]: 6.00 to 7.00
